Test results from PubChem BioAssay (NCI).
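Each compound was tested at five concentrations against cells in 96-well plates for 48 hours. TGI: concentration producing complete growth inhibition.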

Assays:
Experiment in all cases: NCI anticancer screen, dose series, 48 h
786-0 renal = tested on: 786-0 renal
ACHN renal = tested on: ACHN renal
EKVX NSCLC = tested on: EKVX NSCLC
HCC-2998 colon = tested on: HCC-2998 colon
HOP-62 NSCLC = tested on: HOP-62 NSCLC
HOP-92 NSCLC = tested on: HOP-92 NSCLC
KM12 colon = tested on: KM12 colon
MDA-MB-231 breast = tested on: MDA-MB-231 breast
OVCAR-3 ovarian = tested on: OVCAR-3 ovarian
OVCAR-8 ovarian = tested on: OVCAR-8 ovarian
SF-295 CNS = tested on: SF-295 CNS
SF-539 CNS = tested on: SF-539 CNS
SK-MEL-2 melanoma = tested on: SK-MEL-2 melanoma
SK-OV-3 ovarian = tested on: SK-OV-3 ovarian
SN12C renal = tested on: SN12C renal
SW-620 colon = tested on: SW-620 colon
UACC-257 melanoma = tested on: UACC-257 melanoma
MCF7 breast = tested on: MCF7 breast
NCI-H522 lung = tested on: NCI-H522 lung
HS 578T breast = tested on: HS 578T breast

Compound	TGI (786-0 renal) [µM]	TGI (ACHN renal) [µM]	TGI (EKVX NSCLC) [µM]	TGI (HCC-2998 colon) [µM]	TGI (HOP-62 NSCLC) [µM]	TGI (HOP-92 NSCLC) [µM]	TGI (KM12 colon) [µM]	TGI (MDA-MB-231 breast) [µM]	TGI (OVCAR-3 ovarian) [µM]	TGI (OVCAR-8 ovarian) [µM]	TGI (SF-295 CNS) [µM]	TGI (SF-539 CNS) [µM]	TGI (SK-MEL-2 melanoma) [µM]	TGI (SK-OV-3 ovarian) [µM]	TGI (SN12C renal) [µM]	TGI (SW-620 colon) [µM]	TGI (UACC-257 melanoma) [µM]	TGI (MCF7 breast) [µM]	TGI (NCI-H522 lung) [µM]	TGI (HS 578T breast) [µM]
CC(CO)(CBr)COC(=O)c1cc(Br)c(N)c(Br)c1 (configuration not stated)	> 100	> 100	> 100	> 100	> 100	45.9	> 100	> 100	> 100	> 100	> 100	> 100	> 100	> 100	> 100	> 100	> 100	–	–	–
CC(=O)O[C@H]1CC[C@@]2(C)C(=C[C@H](c3ccc(O)cc3)[C@H]3[C@@H]4CC[C@H](OC(C)=O)[C@@]4(C)CC[C@@H]32)C1	38.3	80.6	37.4	36.2	66.9	81.5	31	35.8	38.8	33.8	77.9	43.9	48.4	> 100	69	46.2	51.6	57.4	–	–
O=C1C2=Cc3ccccc3OC2(O)Oc2ccc(O)cc21 (configuration not stated)	> 100	29.6	> 100	> 100	> 100	> 100	> 100	> 100	> 100	> 100	> 100	> 100	> 100	> 100	> 100	> 100	> 100	> 100	–	–
COCCN(CCOC)C(=O)COc1c2cc(C(C)(C)C)cc1Cc1cc(C(C)(C)C)cc(c1OCC(=O)N(CCOC)CCOC)Cc1cc(C(C)(C)C)cc(c1OCC(=O)N(CCOC)CCOC)Cc1cc(C(C)(C)C)cc(c1OCC(=O)N(CCOC)CCOC)Cc1cc(C(C)(C)C)cc(c1OCC(=O)N(CCOC)CCOC)C2	12.2	12.6	2.8	18.3	5.04	–	11.1	5.06	10.2	22.8	6.43	5.9	3.19	14.6	11.4	11.9	6.58	6.42	6.9	–
CCOC(=O)N/N=C(\Cc1ccc([N+](=O)[O-])cc1)OCC	> 100	> 100	> 100	> 100	> 100	> 100	> 100	> 100	> 100	> 100	> 100	> 100	> 100	> 100	> 100	> 100	> 100	> 100	> 100	–
CCOC(=O)C(C(=O)OCC)=C1N[C@H](C(=O)OCC)CS1	> 100	> 100	> 100	> 100	> 100	–	> 100	–	> 100	> 100	> 100	> 100	> 100	–	> 100	> 100	> 100	–	> 100	–
CCOC(=O)c1nnsc1NN=C(C)C	> 100	–	> 100	> 100	> 100	–	> 100	> 100	> 100	> 100	> 100	> 100	> 100	> 100	> 100	> 100	> 100	–	> 100	> 100
COC(=O)C(Cc1c(C2Nc3ccccc3C2CC(NC(C)=O)C(=O)OC)[nH]c2ccccc12)NC(C)=O (configuration not stated)	> 100	> 100	> 100	–	> 100	> 100	> 100	> 100	> 100	> 100	> 100	> 100	> 100	> 100	> 100	> 100	> 100	–	> 100	> 100
NC(=O)NC1=NC(Cc2ccccc2)C(=O)N1Cc1ccccc1 (configuration not stated)	> 100	> 100	> 100	> 100	> 100	–	> 100	–	> 100	> 100	> 100	> 100	–	> 100	> 100	> 100	> 100	–	–	–
CC(=O)OC1CC2C(C)(C)C(=O)C=C[C@]2(C)C2CCC3(C)C(c4ccoc4)[C@@H](O)[C@H]4O[C@]43[C@]12C (some centres not stated)	31.4	50	> 100	29.6	42.6	39.9	35.1	–	31.8	36.2	42.5	34.2	39.6	42.5	34.1	35.4	41.6	–	28	–
CCCNC(=O)Cn1c(C)cc2ccccc21	> 100	> 100	> 100	> 100	> 100	> 100	> 100	–	> 100	> 100	–	> 100	> 100	> 100	> 100	> 100	> 100	> 100	> 100	> 100
Cc1cn([C@H]2C[C@@H]3[C@@H](COC(CCl)N3O)O2)c(=O)[nH]c1=O (some centres not stated)	> 100	–	> 100	–	> 100	–	> 100	–	> 100	> 100	> 100	> 100	> 100	> 100	> 100	> 100	> 100	> 100	> 100	> 100
C/C=C1\CNC1C(=O)O (configuration not stated)	> 100	> 100	> 100	> 100	> 100	> 100	–	–	> 100	> 100	> 100	> 100	> 100	> 100	> 100	> 100	> 100	> 100	–	> 100
